From patent EP1032559B1 (priority 1997, dated 1999)
Counter-ions that a name gives are not always drawn.

Assays:
[1] = target: T1, acetylcholinesterase (Rattus norvegicus, UniProt P37136); assay: biochemical; design: species or system Male Wistar rats
T1 construct: corpora striata dissected free, weighted and homogenized in 19 volumes; from tissue; host or cells: rat brain corpora striata, crude homogenate
T1 sequence (P37136 32-614): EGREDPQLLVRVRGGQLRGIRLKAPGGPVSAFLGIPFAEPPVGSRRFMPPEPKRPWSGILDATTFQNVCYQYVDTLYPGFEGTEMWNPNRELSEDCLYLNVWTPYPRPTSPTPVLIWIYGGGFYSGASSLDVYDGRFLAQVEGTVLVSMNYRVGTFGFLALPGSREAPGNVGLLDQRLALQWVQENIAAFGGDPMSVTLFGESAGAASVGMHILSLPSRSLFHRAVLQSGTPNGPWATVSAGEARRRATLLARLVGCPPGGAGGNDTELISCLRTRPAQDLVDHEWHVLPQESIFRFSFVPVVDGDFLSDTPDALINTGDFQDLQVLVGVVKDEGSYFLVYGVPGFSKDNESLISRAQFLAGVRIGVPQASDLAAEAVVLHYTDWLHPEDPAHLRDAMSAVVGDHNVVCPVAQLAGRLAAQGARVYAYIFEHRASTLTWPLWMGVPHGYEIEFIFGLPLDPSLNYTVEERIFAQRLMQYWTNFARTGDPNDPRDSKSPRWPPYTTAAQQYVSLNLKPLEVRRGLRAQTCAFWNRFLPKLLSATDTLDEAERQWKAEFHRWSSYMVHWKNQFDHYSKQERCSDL
Method: 0.05M Phosphate Buffer (pH 7.2)
A solution of monobasic sodium phosphate monohydrate (6.85 g) in distilled water (100 ml) is added to a solution of dibasic sodium phosphate heptahydrate (13.4 g) and distilled water (100 ml) until a pH of 7.2 was attained. The solution was diluted 1 to 10 with distilled water.
5,5-Dithiobisnitrobenzoic acid in Buffer
The 0.05M Phosphate Buffer (pH 7.2) was added to 5.5-dithiobisnitrobenzoic acid to a total volume of 100 ml, i.e., a quantity sufficient (gs) to 100 ml.
A 2 millimolar stock solution of the test drug is prepared in a quantity sufficient of either acetic acid or dimethyl sulfoxide to volume with 5,5-dithiobisnitrobenzoic acid in Buffer. […]
Male Wistar rats are decapitated, brains rapidly removed, corpora striata dissected free, weighted and homogenized in 19 volumes (approximately 7 mg protein/ml) of 0.05M Phosphate Buffer (pH 7.2) using a Potter-Elvejhem homogenizer. […] Enzyme activity is measured with a Beckman DU-50 spectrophotometer with the following software and instrument settings: • 1. […]
Blank values are determined for each run to control for non-enzymatic hydrolysis of substrate and these values are automatically subtracted by the Kindata program available on kinetics soft-pac module. This program also calculates the rate of absorbance change for each cuvette. […]
IC50 values are calculated from log-probit analysis

[2] = target: clonidine: α2-receptor; assay: in vitro clonidine binding: α2-receptor assay; design: species or system Male Wistar rats; details: rat cortical tissue homogenate; 3 nM 3H-clonidine; 20 minutes at 25° C; log-probit analysis; read-out: Inhibition of clonidine binding activity IC50
Method: The following reagents are prepared: 1.
[4-^3H]-Clonidine Hydrochloride (20-30 Ci/mmol) is obtained from New England Nuclear. […] Clonidine hydrochloride is obtained from Boehringer Ingelheim. A stock solution of 0.1 mM clonidine is made up to determine nonspecific binding. This yields a final concentration of 1 µM in the assay (20 µl to 2 ml). […] Test compounds. For most assays, a 1 mM stock solution is made up in a suitable solvent and serially diluted, such that the final concentration in the assay ranges from 10-^5 to 10-^8M.
Male Wistar rats are sacrificed by decapitation and the cortica tissue rapidly dissected. The tissue is homogenized in 50 volumes of 0.05 M Tris buffer, pH 7.7 (buffer 1b) with the Brinkman Polytron, then centrifuged at 40,000 g for 15 minutes. The supernatant is discarded and the pellet rehomogenized in the original volume of 0.05 M Tris buffer, pH 7.7 and recentrifuged as before. The supernate is discarded and the final pellet rehomogenized in 50 volumes of Buffer 2b. This tissue suspension is then stored on ice. The final tissue concentration is 10 mg/ml. […]
Tissue homogenates are incubated for 20 minutes at 25° C with 3 nM ^3H-clonidine and varying drug concentrations, then immediately filtered under reduced pressure on Whatman GF/B filters. […] Ten ml of liquescent counting solution is added to each sample which is then counted by liquid scintillation spectroscopy. […]

Compound | IC50 [1] | IC50 [2]
C#CCOc1cc(CN2CCN(c3ccccn3)CC2)ccc1OC [4-Methoxy-3-(propargyloxy)-1-[[4-(pyridin-2-yl)piperazin-1-yl]methyl] benzene hydrochloride monohydrate] | 26900 nM | 34.6 nM
C#CCOc1cc(CN2CCCC2)ccc1OC(=O)NC [reference compound] | 3.6 nM | –
